{"source": "patent US20050137251A1", "about": "“Dexanabinol and dexanabinol analogs regulate inflammation related genes” (priority 2002, published 2005)", "key": {"[1]": {"test_system": "activated microglia cells", "experiment": "Activated microglia (F4/80 immunohistochemistry) in hippocampus of LPS injected mice brains", "assay_type": "in vivo", "conditions": "20 mg/kg, 72 hours after LPS", "experimental": "The local i.c.v. injection of LPS in mice brain stimulates a wide range of inflammatory responses and cascades where various cytokines and chemokines are implicated. Following the results obtained in examples 3 and 4, we decided to assess the effect of additional active compounds of the invention on other genes involved in the inflammatory response. Specifically, we tested the impact of dexanabinol and PRS-211,092, both at 20 mg/kg, on the expression of pro-inflammatory IL-1β cytokine. The protocol was basically as previously described with minor modifications. The amount of LPS injected in the mice brain was raised to 250 ng and the animals were sacrificed 24 hours after LPS and treatment injection for mRNA analysis, carried out as previously described. Moreover, some animals were kept alive and sacrificed 72 hours after LPS and treatment injection for immunohistochemical analysis. For this purpose, after euthanizing the animals by injecting i.p. 100 mg/kg of sodium pentobarbitone, brains were removed and fixed in 4% formaldehyde for at least 72 hours. Brains were then washed with PBS and transferred for cryoprotection in a solution of 30% sucrose in PBS, until they sank. […] Quantitative analysis was carried out by counting the number of immunoreactive cells/mm^2 at the level of the hippocampus."}, "IL-2 gene expression": {"test_system": "IL-2 gene expression", "experiment": "IL-2 gene expression in Jurkat T cells activated with PMA and calcium ionophore", "assay_type": "cell-based, human", "conditions": "10 μM, RNA 6 hrs after activation", "description": "The human acute lymphoma T cell line Jurkat (ATCC # TIB 152) was used to test the possible immunosuppressive effect of dexanabinol and its analogs on T cell activation. […] 2×10^6 cells in one milliliter were stimulated using 10 ng/ml of PMA (Sigma) and 1 μM A23187 calcium ionophore (Sigma). […] The controls and test compounds were added at indicated concentrations one hour before stimulation.\nThe results are plotted after normalization to cyclophilin A expression."}}}
{"compound": "CCCCCCC(C)(C)c1cc(O)c2c(c1)OC(C)(C)[C@H]1CC=C(CO)C[C@H]21", "note": "[dexanabinol, 1,1-dimethylheptyl-(3S,4S)-7-hydroxy-Δ^6-tetrahydrocannabinol]", "values": [{"measurement": "Reduction of the amount of activated microglia vs vehicle", "setting": "[1]", "value": 40, "unit": "%"}, {"measurement": "Reduction of IL-2 fold of activation", "setting": "IL-2 gene expression", "value": 41, "unit": "%"}]}
